The test system of this assay is human O-type erythrocytes. As to the kind of experiment: Erythrocyte agglutination, microtiter method. Format: cell-based. Conditions: at a concentration of 1 mg/ml. The procedure:
The inventive tablet and the control tablet obtained by drying under hot air circulation, were crushed into powders. 1.0 g each of the powders was dissolved in 10 ml of distilled water. After stirring, each of the resulting solutions was centrifuged at 4° C. for 30 minutes at 12,000 rpm.
The erythrocyte agglutination activity of each of the produced supernatants was examined in accordance with the microtiter method.
A buffer solution obtained by mixing phosphoric acid with physiological saline to pH 7.4 was added to 100 μl each of the supernatarits for two-stage dilution until 128-fold dilution was reached. To each diluted solution, 100 μof the 1% human O-type erythrocytes were added, and reaction was carried out at 37° C. for one hour to observe the progress of agglutination.

The record followed here is US6368624B1, “Tableted product prepared by vacuum freeze-drying of a plant belonging to genus aloe of family Liliaceae and the method for producing same” (Yurika Incorporated, priority 1990, dated 2002).

The substance Concanavalin A had an Agglutination titer of 32 titer.
